According to US20130064870A1, “DRY POWDER INHALATION COMPOSITION” (SUN PHARMA ADVANCED RESEARCH COMPANY LIMITED, priority 2010, published 2013):
“And” between values parts separate entries of the source, which are not always exact repeats. Equal entries are not always repeated.

Tests used:
Assay type in all cases: physicochemical
[1] = Polymorphic purity by differential scanning calorimetry (DSC)
Method: The phrase ‘substantially free of polymorph II’ means the micronized salmeterol xinafoate having not more than 5%, preferably not more than 3%, most preferably not more than 1% of polymorph II. The polymorphic purity of the salmeterol xinafoate can be determined by any known analytical method. According to the present invention, the polymorphic purity is determined by differential scanning calorimeter (DSC). The melting points of polymorph I and polymorph II are distinct and this method can determine the presence of two.
In one embodiment, the salmeterol xinafoate was obtained by micronizing salmeterol xinafoate by milling in a jet mill with grinding parameters are as follows: grinding pressure: 1-5 bars, feed pressure: 2-10 bars, feed rate of 0.1-10 g/min, followed by subjecting the micronized material to a temperature of about 50° C. to 90° C., wherein the conditioning cycle is carried out for a time period o about 1 hour to 120 hours, preferably, 1 to 50 hours, most preferably, 20 hrs to 40 hrs. The polymorphic purity of the resultant salmeterol xinafoate so obtained was determined by recording the differential scanning calorimetry (See FIGS. 3-5).
The results of the polymorphic purity were determined by differential scanning calorimeter and are tabulated below

[2] = Mean particle size (D50) by laser light diffraction
Method: The term ‘mean particle size’ as used herein means the particle size distribution of 50% of the population of the particles is less than the specified value. The particle size was measured using laser light diffraction method of particle size analysis.

Tapped density = test: Tapped density
Text: The term ‘tapped density’ as used herein means that density attained after mechanically tapping a receptacle containing the powder sample.

[3] = In vitro cascade impactor test (fine particle fraction/dose, MMAD, GSD, deposition), USP <601>; conditions: applicant's patented device
Text: A cascade impactor is a multi-stage sampling device for determining the size distribution of a particulate aerosol. The aerosol flows into the impactor whereupon it impinges upon a sequence of solids discs. Each disc (which represents a ‘stage’) is contained within a flow chamber and each chamber is connected in a vertical arrangement to the previous and next chamber in the sequence. Larger particles impact on the first disc and are captured. The sampling velocity increases for each successive chamber/disc so that successively smaller particles are collected. The final stage is typically a fine filter septum. Up to 10 stages are often used which divides the size distribution into an equivalent number of portions. The present invention may use eight Stage Sampler which meets the guidelines of the various world pharmacopoeias (e.g., United States Pharmacopoeia Chapter 601 “USP <601>”) to characterize metered-dose (MDI) and dry powder-dose inhalers (DPI), nebulizers, nasal sprays and other pulmonary drugs or a Next generation impactor (NGI) by Anderson. The testing of inhalation drugs goes hand and hand with cascade impactors, the size ranges collected are considered inhalable (generally <10 μm), just as the inhalation drugs should consistently arrive within the respiratory system into their target regions, the various stages represent the cut-off sizes when deposition may occur within the lungs.
In order to evaluate the effect of the dry powder inhalation composition itself, the composition was delivered via two different inhalation devices namely, a marketed inhalation device, namely, such as for example Rotahaler® and the applicant's own patented device. The % fine particle fraction and mass mean aerodynamic diameter was determined by testing in vitro in cascade impactor. The therapeutic efficacy of the composition of the present invention in terms of fine particle fraction was determined by a cascade impaction method official in the United States Pharmacopoeia, chapter <601>.
The conditioned micronized salmeterol xinafoate having mean particle size of […] and a tapped density in the range of 0.20 g·cm^−3 to 0.45 g·cm^−3 was tested for fine particle fraction, mass mean aerodynamic diameter in a cascade impactor. The composition was delivered using the applicant's patented device as described in the description. The results of the in-vitro testing are provided below in Table 2:
The composition of dry powder inhalation was subjected to fine particle dose determination. This was determined according to the procedure given in USP chapter <601>. The fine particle fraction was measured in terms of deposition at various stages as per the pharmacopoeial method. […]

[4] = Polymorphic purity by differential scanning calorimetry (DSC); conditions: micronized, conditioned 80 hr at 40° C., 80 bar, CO2
[5] = micronized, before conditioning at 40° C./80 bar CO2
[6] = micronized, conditioned 40 hr at 85° C., air, no pressure
[7] = micronized, not conditioned (FIG. 3)
[8] = un-micronized salmeterol xinafoate (FIG. 2)
[9] = batch D50 4.02, tapped density 0.25
[10] = batch D50 5.99, tapped density 0.43

% polymorph I [1, 5]: 44.18%
% polymorph II [1, 5]: 34.34%
% Salmeterol xinafoate Polymorph form I ([1]; micronized, conditioned 24 hr at 85° C., air, no pressure): 92.78%
% Salmeterol xinafoate Polymorph form I [1, 6]: 96.40%
% Salmeterol xinafoate Polymorph form II [1, 6]: 3.66% and 3.60%
% polymorph I [1, 7]: 69.20%
% polymorph II [1, 7]: 30.80%
% polymorph form I [1, 8]: 88.8%
% polymorph form II [1, 8]: 11.20%
Mean particle size D50 ([2]; conditioned micronized batch with tapped density 0.25): about 4.02 μms
Mean particle size D50 ([2]; conditioned micronized batch with tapped density 0.25, listed as salmeterol xinofoate): 4.02 μms
Mean particle size D50 ([2]; conditioned micronized batch with tapped density 0.43): about 6 μms
Mean particle size D50 ([2]; conditioned micronized batch with tapped density 0.43, listed as salmeterol xinofoate): 5.99 μms
Tapped density (Tapped density; conditioned micronized batch with D50 4.02): 0.25 g/mL
Tapped density (Tapped density; conditioned micronized batch with D50 5.99): 0.43 g/mL
% FPF Mean [3, 9]: 41.115%
GSD Mean [3, 9]: 1.747
% FPF Mean [3, 10]: 20.91%
GSD Mean [3, 10]: 1.734
% Salmeterol xinafoate Polymorph form I [4]: 85.95%
% Salmeterol xinafoate Polymorph form II [4]: 9.09%
Structure (SMILES): OCc1cc(C(O)CNCCCCCCOCCCCc2ccccc2)ccc1O (stereo not drawn) [salmeterol xinafoate]
